Several values for one entry are separate records, joined by “and”; a condition that tells them apart may be missing. Identical values can stand only once. Entries after “also recorded” stand apart in the source; their conditions may differ.
Tested on: Chinese patients with advanced HGOC or TNBC
Assay: Safety/tolerability (adverse events per NCI-CTCAE v4.03, DLTs) in phase 1 dose escalation (NCT03333915)
Type: in vivo
Excerpt: This phase 1/2, open‐label, multicenter study assessed the safety and antitumor activity of pamiparib in Chinese patients ≥18 years with advanced solid tumors whose disease progressed despite standard therapy or for which there is no standard therapy. Phase 1 was a dose‐escalation study, with a 3 + 3 design, that evaluated the single‐agent safety/tolerability, pharmacokinetic (PK) profile, and preliminary antitumor activity of pamiparib and confirmed the RP2D in Chinese patients (Figure 1). The phase 2 dose‐expansion component of this study is investigating the single‐agent antitumor activity and safety/tolerability of pamiparib.
In phase 1, patients received pamiparib at 20, 40, and 60 mg BID dose levels. The starting dose for pamiparib (20 mg BID) was selected as one‐third of the RP2D (60 mg BID) and one‐fourth of the MTD (80 mg BID), which were determined in the FIH study. […] Safety evaluations, including dose‐limiting toxicities (DLTs), of ≥3 patients completing one cycle of treatment at a specific dose level were required before proceeding to the next cohort with a higher dose level. Patients could continue the study treatment in 21‐day cycles and subsequent cycles at the discretion of the investigator.
The primary objective in phase 1 was to evaluate the safety and tolerability of pamiparib. Safety and tolerability endpoint assessments were based on monitoring of treatment‐emergent adverse events (AEs), in addition to vital signs, electrocardiograms, physical examinations, and clinical laboratory results. The incidence and severity of all AEs and incidence of serious AEs were assessed according to the National Cancer Institute‐Common Terminology Criteria for Adverse Events v4.03.
Approximately 14 to 18 evaluable patients were expected to enroll in the phase 1 part of the study. The safety population included all patients who received ≥1 dose of pamiparib. The PK population included all patients for whom valid pamiparib PK parameters could be estimated. Antitumor activity per RECIST v1.1 was assessed in all evaluable patients. Patients were considered response evaluable if they had measurable disease at baseline per RECIST v1.1 and had ≥1 post‐baseline tumor assessment, unless treatment had been discontinued due to clinical progression or death prior to tumor assessment. The population evaluable for CA‐125 response included patients in the safety population with baseline CA‐125 ≥2 x upper limit of normal.

C[C@]12CCCN1CC1=NNC(=O)c3cc(F)cc4[nH]c2c1c34 [pamiparib, Pamiparib]
Treatment-related adverse event Decreased white blood cell count, Grade ≥3 (60 mg BID (n = 7)): 2 (28.6) n (%)
Treatment-related adverse event Diarrhea, All Grades (60 mg BID (n = 7)): 2 (28.6) n (%)
Treatment-related adverse event Diarrhea, Grade ≥3 (60 mg BID (n = 7)): 0 n (%)
Treatment-related adverse event Increased GGT, All Grades (60 mg BID (n = 7)): 1 (14.3) n (%)
Treatment-related adverse event Increased GGT, Grade ≥3 (60 mg BID (n = 7)): 0 n (%)
Treatment-related adverse event Increased conjugated bilirubin, All Grades (60 mg BID (n = 7)): 2 (28.6) n (%)
Treatment-related adverse event Increased conjugated bilirubin, Grade ≥3 (60 mg BID (n = 7)): 0 n (%)
Treatment-related adverse event Nausea, All Grades (60 mg BID (n = 7)): 5 (71.4) n (%)
Treatment-related adverse event Nausea, Grade ≥3 (60 mg BID (n = 7)): 1 (14.3) n (%)
Treatment-related adverse event Prolonged electrocardiogram QT, All Grades (60 mg BID (n = 7)): 2 (28.6) n (%)
Treatment-related adverse event Prolonged electrocardiogram QT, Grade ≥3 (60 mg BID (n = 7)): 0 n (%)
Treatment-related adverse event Somnolence, All Grades (60 mg BID (n = 7)): 1 (14.3) n (%)
Treatment-related adverse event Somnolence, Grade ≥3 (60 mg BID (n = 7)): 0 n (%)
Treatment-related adverse event Tachycardia, All Grades (60 mg BID (n = 7)): 2 (28.6) n (%)
Treatment-related adverse event Tachycardia, Grade ≥3 (60 mg BID (n = 7)): 0 n (%)
Treatment-related adverse event Vomiting, All Grades (60 mg BID (n = 7)): 2 (28.6) n (%)
Treatment-related adverse event Vomiting, Grade ≥3 (60 mg BID (n = 7)): 1 (14.3) n (%)
Discontinued treatment: Adverse event (60 mg BID (n=7), count (percent)): 2 (28.6)
Tolerability (20 to 60 mg BID, Chinese patients): generally well tolerated
Grade 3 TRAE: anemia (N = 15): 2 n
Grade 4 or 5 TRAEs (N = 15): No grade 4 or 5 TRAEs
Grade ≥4 AEs (N = 15): no grade ≥4 AEs
Patients who experienced a serious AE (N = 15): three
Patients who experienced ≥1 AE considered related to pamiparib (N = 15): 100%
Serious AE: abdominal infection (N = 15): 1 n
Serious AE: intestinal obstruction (N = 15): 1 n
Serious AE: pleural effusion (N = 15): 1 n
Serious AEs considered related to study treatment (N = 15): none and no DLTs or serious AEs considered related to pamiparib
Patients who experienced grade ≥3 AEs (N = 15 (10 patients), all causality): 67%
Patients who experienced ≥1 TRAE of grade 3 severity (N = 15 (six patients)): 40%
AE of any grade: asthenia (N = 15, all causality): 80%
AE of any grade: decreased appetite (N = 15, all causality): 60%
AE of any grade: decreased white blood cell count (N = 15, all causality): 67%
AE of any grade: nausea (N = 15, all causality): 80%
Grade ≥3 AE: anemia (N = 15, all causality): 27%
Grade ≥3 AE: decreased hemoglobin (N = 15, all causality): 20%
Patients who experienced ≥1 AE of any grade (N = 15, all causality): 15 patients
Treatment-related AE: asthenia (N = 15, any grade): 80%
Treatment-related AE: nausea (N = 15, any grade): 80%
Recommended phase 2 dose (RP2D) confirmed in Chinese patients (PO): 60 mg BID
Treatment-related adverse event Asthenia, All Grades (Total (N = 15)): 12 n (%) and 12 (80.0) n (%)
Treatment-related adverse event Asthenia, Grade ≥3 (Total (N = 15)): 0 n (%)
Treatment-related adverse event Decreased appetite, All Grades (Total (N = 15)): 9 (60.0) n (%)
Treatment-related adverse event Decreased appetite, Grade ≥3 (Total (N = 15)): 0 n (%)
Treatment-related adverse event Decreased hemoglobin, All Grades (Total (N = 15)): 6 (40.0) n (%)
Treatment-related adverse event Decreased hemoglobin, Grade ≥3 (Total (N = 15)): 3 n (%) and 3 (20) n (%)
Treatment-related adverse event Decreased neutrophil count, All Grades (Total (N = 15)): 8 (53.3) n (%)
Treatment-related adverse event Decreased neutrophil count, Grade ≥3 (Total (N = 15)): 2 n (%) and 2 (13) n (%)
Treatment-related adverse event Decreased platelet count, All Grades (Total (N = 15)): 3 (20.0) n (%)
Treatment-related adverse event Decreased platelet count, Grade ≥3 (Total (N = 15)): 1 n (%) and 1 (7) n (%)
Treatment-related adverse event Decreased white blood cell count, All Grades (Total (N = 15)): 10 (66.7) n (%)
Treatment-related adverse event Decreased white blood cell count, Grade ≥3 (Total (N = 15)): 2 n (%) and 2 (13) n (%)
Treatment-related adverse event Diarrhea, All Grades (Total (N = 15)): 3 (20.0) n (%)
Treatment-related adverse event Diarrhea, Grade ≥3 (Total (N = 15)): 0 n (%)
Treatment-related adverse event Increased GGT, All Grades (Total (N = 15)): 3 (20.0) n (%)
Treatment-related adverse event Increased GGT, Grade ≥3 (Total (N = 15)): 0 n (%)
Treatment-related adverse event Increased conjugated bilirubin, All Grades (Total (N = 15)): 4 (26.7) n (%)
Treatment-related adverse event Increased conjugated bilirubin, Grade ≥3 (Total (N = 15)): 0 n (%)
Treatment-related adverse event Nausea, All Grades (Total (N = 15)): 12 n (%) and 12 (80.0) n (%)
Treatment-related adverse event Nausea, Grade ≥3 (Total (N = 15)): 1 n (%) and 1 (7) n (%)
Treatment-related adverse event Prolonged electrocardiogram QT, All Grades (Total (N = 15)): 4 (26.7) n (%)
Treatment-related adverse event Prolonged electrocardiogram QT, Grade ≥3 (Total (N = 15)): 1 n (%) and 1 (7) n (%)
Treatment-related adverse event Somnolence, All Grades (Total (N = 15)): 3 (20.0) n (%)
Treatment-related adverse event Somnolence, Grade ≥3 (Total (N = 15)): 0 n (%)
Treatment-related adverse event Tachycardia, All Grades (Total (N = 15)): 3 (20.0) n (%)
Treatment-related adverse event Tachycardia, Grade ≥3 (Total (N = 15)): 0 n (%)
Treatment-related adverse event Vomiting, All Grades (Total (N = 15)): 4 (26.7) n (%)
Treatment-related adverse event Vomiting, Grade ≥3 (Total (N = 15)): 1 n (%) and 1 (7) n (%)
Dose-limiting toxicities (DLTs) (pamiparib dose range 20-60 mg BID, 23-day initial cycle): No dose‐limiting toxicities; also recorded: no DLTs
